From patent US12059407B2, “Compositions and methods for delivery of macromolecules” (The Regents of the University of California, priority 2017, dated 2024)

Experiments:
HEK293T cells [1] = assay: Cytotoxicity assay in HEK293T cells; type: cell-based
HEK293T cells [2] = assay: Model study with Saporin: protein delivery; type: cell-based; settings: HEK293T cells treated with only Saporin or only compound 1

| Substance | CC50 (HEK293T cells [1]) [µM] | cell death, single agent only (HEK293T cells [2]) |
| --- | --- | --- |
| Triton X | 59 | – |
| Saporin | – | no cell death |
